Measured values as given in PMC8310135 (Viruses, 2021).
Structures can show the parent of a compound that is named as a salt. Where two headings read alike, the source gives them in different places.

What was measured:
rLUJV/ZsG = assay: microbe, parasite or virus in culture; assay type: cell-based, Lujo virus
in vitro = conditions: human; for CC50: CC50 (50% cell cytotoxicity concentration)
[1] = Mammarenavirus lujoense, Huh-7, 50 nM, read-out: Relative ZsG (%) Mean
[2] = Mammarenavirus lujoense, Huh-7, 500 nM, read-out: Relative ZsG (%) Mean
[3] = Mammarenavirus lujoense, Huh-7, 5000 nM, read-out: Relative ZsG (%) Mean
[4] = Mammarenavirus lujoense, Huh-7, read-out: EC50 (concentration inhibiting ZsG expression by 50%)
[5] = read-out: EC50 (concentration inhibiting ZsG expression by 50%)
[6] = Mammarenavirus lujoense, Huh-7, read-out: Relative ZsG (%) Mean

SMILES | activity at 0.05 µM (rLUJV/ZsG; [1]) | activity at 0.5 µM (rLUJV/ZsG; [2]) | activity at 5 µM (rLUJV/ZsG; [3]) | viability at 0.05 µM (in vitro) | viability at 0.5 µM (in vitro) | viability at 5 µM (in vitro) | further results
C[C@@]1(O)[C@H](O)[C@@H](CO)O[C@H]1n1ccc2c(N)ncnc21 [7-DMA] | – | – | – | – | – | – | Cell Viability (%) Mean (Huh7 cells; 50 nM): 98%; Cell Viability (%) Mean (Huh7 cells; 500 nM): 103%; Cell Viability (%) Mean (Huh7 cells; 5000 nM): 113%; Relative ZsG (%) Mean (rLUJV/ZsG; 50 nM): 96%; Relative ZsG (%) Mean (rLUJV/ZsG; 500 nM): 95%; Relative ZsG (%) Mean (rLUJV/ZsG; 5000 nM): 92%
CC(C)C(=O)OC[C@@]1(N=[N+]=[N-])O[C@@H](n2ccc(N)nc2=O)[C@H](OC(=O)C(C)C)[C@@H]1OC(=O)C(C)C [Balapiravir (R1626), Balapiravir] | 139% | 81% | 122% | 104% | 104% | 99% | –
COC(=O)C1=C(C)NC(C)=C(C(=O)OC2CCCN(Cc3ccccc3)C2)C1c1cccc([N+](=O)[O-])c1 (centres unmarked) [Benidipine] | 90% | 81% | 61% | 126% | 129% | 107% | –
CN1[C@@H]2CC[C@H]1C[C@@H](OC(c1ccccc1)c1ccccc1)C2 [Benztropine mesylate] | 110% | 90% | 36% | 126% | 130% | 108% | EC50 (rLUJV/ZsG; [4]): 5.14 ± 1.52 µM; EC50 (rLUJV/ZsG; [5]): 5.14 ± 1.52 µM; CC50 (in vitro): > 25 µM
CN1CCC[C@@H]1CCO[C@](C)(c1ccccc1)c1ccc(Cl)cc1 [Clemastine fumarate] | 95% | 81% | 6% | 115% | 116% | 107% | –
CC(C)/N=c1\cc2n(-c3ccc(Cl)cc3)c3ccccc3nc-2cc1Nc1ccc(Cl)cc1 [Clofazimine] | 88% | 75% | 52% | 120% | 125% | 102% | –
CN(C)CCCN1c2ccccc2CCc2ccc(Cl)cc21 [Clomipramine HCL] | 129% | 103% | 12% | 97% | 97% | 98% | –
CC(C)(C)c1nc(-c2cccc(NS(=O)(=O)c3c(F)cccc3F)c2F)c(-c2ccnc(N)n2)s1 [Dabrafenib] | 87% | 79% | 22% | 119% | 117% | 68% | –
CNCC[C@H](Oc1cccc2ccccc12)c1cccs1 [Duloxetine HCL] | – | – | – | 104% | 109% | 76% | activity at 0.05 µM (rLUJV/ZsG; [6]): 103%; activity at 0.5 µM (rLUJV/ZsG; [6]): 74%; activity at 5 µM (rLUJV/ZsG; [6]): 4%
C#Cc1cccc(Nc2ncnc3cc(OCCOC)c(OCCOC)cc23)c1 [Erlotinib] | 82% | 66% | 65% | 127% | 126% | 110% | –
COc1cc2ncnc(Nc3ccc(F)c(Cl)c3)c2cc1OCCCN1CCOCC1 [Gefitinib] | 77% | 71% | 48% | 128% | 121% | 101% | –
O=c1c(-c2ccc(O)cc2)coc2cc(O)cc(O)c12 [Genistein] | 83% | 68% | 92% | 123% | 111% | 106% | –
Cc1ccc(NC(=O)c2ccc(CN3CCN(C)CC3)cc2)cc1Nc1nccc(-c2cccnc2)n1 [Gleevec] | 95% | 113% | 56% | 101% | 96% | 96% | –
CCOC(=O)C1=C(C)NC(C)=C(C(=O)OCC)C1c1ccccc1/C=C/C(=O)OC(C)(C)C [Lacidipine] | 90% | 90% | 47% | 138% | 129% | 98% | –
CN(C)C(=O)C(CCN1CCC(O)(c2ccc(Cl)cc2)CC1)(c1ccccc1)c1ccccc1 [Loperamide HCL] | 104% | 81% | 1% | 99% | 104% | 85% | SI (selectivity index, CC50 divided by EC50) (rLUJV/ZsG): 3.3; EC50 (rLUJV/ZsG; [4]): 3.67 ± 0.99 µM; EC50 (rLUJV/ZsG; [5]): 3.67 ± 0.986 µM; CC50 (in vitro): 12.3 ± 3.57 µM
Cc1c(F)cc(C(=O)NC2CC2)cc1-c1ccc(C(=O)NCC(C)(C)C)cn1 [Losmapimod] | 60% | 70% | 63% | 113% | 115% | 114% | –

SMILES | activity at 0.05 µM (rLUJV/ZsG; [1]) | activity at 0.5 µM (rLUJV/ZsG; [2]) | activity at 5 µM (rLUJV/ZsG; [3]) | viability at 0.05 µM (in vitro) | viability at 0.5 µM (in vitro) | viability at 5 µM (in vitro) | further results
Clc1ccc(COC(Cn2ccnc2)c2ccc(Cl)cc2Cl)c(Cl)c1 (centres unmarked) [Miconazole nitrate] | 65% | 78% | 47% | 119% | 120% | 67% | –
CCCCCCCCCCCCCCCCn1cc[n+](Cc2ccccc2)c1C.[I-] [NH125] | – | – | – | – | – | – | Cell Viability (%) Mean (Huh7 cells; 50 nM): 104%; Cell Viability (%) Mean (Huh7 cells; 500 nM): 63%; Cell Viability (%) Mean (Huh7 cells; 5000 nM): 1%; Relative ZsG (%) Mean (rLUJV/ZsG; 50 nM): 60%; Relative ZsG (%) Mean (rLUJV/ZsG; 500 nM): 28%; Relative ZsG (%) Mean (rLUJV/ZsG; 5000 nM): 2%
C#C[C@@]1(O)[C@H](O)[C@@H](CO)O[C@H]1n1ccc2c(N)ncnc21 [NITD008] | – | – | – | – | – | – | Cell Viability (%) Mean (Huh7 cells; 50 nM): 99%; Cell Viability (%) Mean (Huh7 cells; 500 nM): 96%; Cell Viability (%) Mean (Huh7 cells; 5000 nM): 97%; Relative ZsG (%) Mean (rLUJV/ZsG; 50 nM): 122%; Relative ZsG (%) Mean (rLUJV/ZsG; 500 nM): 110%; Relative ZsG (%) Mean (rLUJV/ZsG; 5000 nM): 136%
OC(CNCC(O)C1CCc2cc(F)ccc2O1)C1CCc2cc(F)ccc2O1 (centres unmarked) [Nebivolol] | 76% | 58% | 18% | 110% | 108% | 76% | –
C[C@@]1(F)[C@H](O)[C@@H](CO)O[C@H]1n1ccc(N)nc1=O [PSI-6130] | – | – | – | – | – | – | Cell Viability (%) Mean (Huh7 cells; 50 nM): 100%; Cell Viability (%) Mean (Huh7 cells; 500 nM): 96%; Cell Viability (%) Mean (Huh7 cells; 5000 nM): 99%; Relative ZsG (%) Mean (rLUJV/ZsG; 50 nM): 149%; Relative ZsG (%) Mean (rLUJV/ZsG; 500 nM): 90%; Relative ZsG (%) Mean (rLUJV/ZsG; 5000 nM): 114%
C[C@@]1(F)[C@H](O)[C@@H](CO)O[C@H]1n1ccc(=O)[nH]c1=O [PSI-6206] | – | – | – | – | – | – | Cell Viability (%) Mean (Huh7 cells; 50 nM): 103%; Cell Viability (%) Mean (Huh7 cells; 500 nM): 96%; Cell Viability (%) Mean (Huh7 cells; 5000 nM): 104%; Relative ZsG (%) Mean (rLUJV/ZsG; 50 nM): 141%; Relative ZsG (%) Mean (rLUJV/ZsG; 500 nM): 87%; Relative ZsG (%) Mean (rLUJV/ZsG; 5000 nM): 128%
CC(C)OC(=O)[C@H](C)N[P@@](=O)(OC[C@H]1O[C@@H](n2ccc(=O)[nH]c2=O)[C@](C)(F)[C@@H]1O)Oc1ccccc1 [PSI-7976] | – | – | – | – | – | – | Cell Viability (%) Mean (Huh7 cells; 50 nM): 94%; Cell Viability (%) Mean (Huh7 cells; 500 nM): 99%; Cell Viability (%) Mean (Huh7 cells; 5000 nM): 107%; Relative ZsG (%) Mean (rLUJV/ZsG; 50 nM): 96%; Relative ZsG (%) Mean (rLUJV/ZsG; 500 nM): 80%; Relative ZsG (%) Mean (rLUJV/ZsG; 5000 nM): 124%
CC(C)OC(=O)[C@H](C)N[P@](=O)(OC[C@H]1O[C@@H](n2ccc(=O)[nH]c2=O)[C@](C)(F)[C@@H]1O)Oc1ccccc1 [PSI-7977] | 119% | 95% | 118% | 101% | 97% | 104% | –
CN[C@H]1CC[C@@H](c2ccc(Cl)c(Cl)c2)c2ccccc21 [Sertraline] | 80% | 69% | 35% | 122% | 128% | 107% | –
Cc1cn([C@H]2C=C[C@@H](CO)O2)c(=O)[nH]c1=O [Stavudine] | 125% | 104% | 96% | 101% | 98% | 103% | –
Clc1ccc(CSC(Cn2ccnc2)c2ccc(Cl)cc2Cl)cc1 (centres unmarked) [Sulconazole nitrate] | 86% | 66% | 42% | 132% | 131% | 52% | –
COc1ccc2cc1Oc1ccc(cc1)C[C@H]1c3cc(c(OC)cc3CCN1C)Oc1c(OC)c(OC)cc3c1[C@H](C2)N(C)CC3 [Tetrandrine] | 95% | 75% | 2% | 115% | 95% | 1% | –
CN(C)CCOc1ccc(/C(=C(/CCCl)c2ccccc2)c2ccccc2)cc1 [Toremifene citrate] | 86% | 88% | 9% | 122% | 128% | 93% | SI (selectivity index, CC50 divided by EC50) (rLUJV/ZsG): 2.6; EC50 (rLUJV/ZsG; [4]): 4.22 ± 0.78 µM; EC50 (rLUJV/ZsG; [5]): 4.22 ± 0.778 µM; CC50 (in vitro): 10.9 ± 3.14 µM
N#Cc1cn([C@@H]2O[C@H](CO)[C@@H](O)[C@H]2O)c2ncnc(N)c12 [Toyocamycin] | 69% | 12% | 7% | 97% | 64% | 23% | –
COc1cc2ncnc(Nc3cccc(Cl)c3)c2cc1OC [Tyrphostin AG1478] | 80% | 73% | 87% | 120% | 101% | 111% | –
Cc1cn([C@H]2C[C@H](N=[N+]=[N-])[C@@H](CO)O2)c(=O)[nH]c1=O [Zidovudine] | 99% | 88% | 92% | 97% | 105% | 93% | –
